# Laboratory results reported in patent US7528106B2, “Compositions and methods for treatment of neovascular diseases” (The Scripps Research Institute, priority 2004, dated 2009).
# Test system: deep retinal vascular network formation in neonatal Balb/C mice
# Assay: Neonatal mouse retinal angiogenesis model
# Type: in vivo
# From the text: Description of the Model. Immediately after birth (postnatal day zero; “P0”), retinal vasculature is virtually absent in the mouse. By four weeks after birth (P28) the retina has attained an adult pattern of retinal vessels coincident with the onset of vision. Physiological neovascularization of the retina occurs during this period via a stereotypical, biphasic developmental pattern of angiogenesis. During the primary phase of retinal vascular development, spoke-like peripapillary vessels grow radially from the central retinal artery and vein, becoming progressively interconnected by a capillary plexus that forms between them. This “inner retinal plexus” grows in area, volume and complexity, centrifugally, as a monolayer within the nerve fiber layer during the first seven to ten days following birth.
# The second phase of retinal vessel formation begins between postnatal days 7 (P7) and 10 (P10) when collateral branches sprout from capillaries of the superficial plexus and penetrate into the retina where their tips branch and anastamose laterally to form a planar “deep vascular plexus”. While the deep vascular plexus is in place by P14, it undergoes extensive remodeling from P14 to P21. It is of interest to note that the formation of these vascular networks in the neonatal mouse are strikingly similar to the events occurring in the third trimester human fetus.
# Advantages and Quantification of the Model. The reproducibility of the murine retinal development process and its easy accessibility in neonatal animals provide an opportunity to assess the efficacy of antiangiogenic compounds in a physiologically relevant model of angiogenesis. Additional advantages of the neonatal mouse model are the ability to qualitatively and quantitatively evaluate the angiostatic effect of putative antagonists of angiogenesis. Angiostatic activity was evaluated based upon the degree of angiogenesis in the deep, outer retinal vascular layer (secondary layer) that develops between P8 and P12. The appearance of the inner blood vessel network (primary layer) was evaluated for normal development and signs of toxicity.
# Preparation of Compositions. Peptidomimetic integrin signaling inhibitor Compound (1) is solubilized in PBS at a concentration of about 20 mg/ml in PBS (1× concentration). T2-TrpRS is solubilized in PBS at a concentration of about 0.5 mg/ml (1× concentration). VEGF aptamer (pegaptanib sodium; Compound (2)) is solubilized in PBS at a concentration of about 2 mg/ml (1× concentration) to achieve an injection of approximately 1 μg/eye at 1× concentration. For all combination assays the compounds were prepared at 2 or 3 times the 1× concentration of each material and then combined to produce a final solution containing each individual compound at the same concentration as was used alone (e.g., 1×, 0.5×, 0.25× or 0.1×, as the case may be). For all assays, a single injection of 0.5 μl of PBS solutions of the drugs was administered intravitreally regardless of the number of compounds being injected. As used herein, the term “0.1×” refers to one tenth of the 1× concentration of a given material, “0.25×” refers to one quarter of the 1× concentration of a given material, “0.5×” refers to one half of the 1× concentration of a given material, and so forth for similar designations.
# An in vivo angiogenesis assay in the neonatal mouse (Balb/C, The Jackson Laboratory, Bar Harbor, Me.) was used to evaluate the angiostatic activity of integrin signaling inhibitor Compound (1), T2-TrpRS, and VEGF aptamer Compound (2). Intravitreous injection and retina isolation was performed with a dissecting microscope (SMZ 645, Nikon, Japan). […] The samples (0.5 μl) were injected with a Hamilton syringe fitted with a 32-gauge needle (Hamilton Company, Reno, Nev.). The injection was made between the equator and the corneal limbus. During injection, the location of the needle tip was monitored by direct visualization to determine that it was in the vitreal cavity. […]
# [1] = Ex 1, 0.5× (1×=2 mg/ml), intravitreal P8, read P12
# [2] = Ex 2, 0.1× of each (1×: T2-TrpRS 0.5, Comp. (2) 2 mg/ml), intravitreal P4, read P12
# [3] = Ex 3, 1× of each (T2-TrpRS 0.5, Comp. (2) 2 mg/ml), intravitreal P4, read P12
# [4] = Ex 4, 0.5× (1×=2 mg/ml), intravitreal P4, read P12
# [5] = Ex 6, 1× of each (T2-TrpRS 0.5, Comp. (2) 2 mg/ml), intravitreal P4, read P12
# [6] = Ex 7, 1× (T2-TrpRS 0.5, Comp. (2) 2 mg/ml), intravitreal P4, read P12
# [7] = Ex 8, 0.25× (1×=2 mg/ml), intravitreal P4, read P12
# [8] = Ex 9, 1× of each (Comp. (1) 20, Comp. (2) 2, T2-TrpRS 0.5 mg/ml), intravitreal P4, read P12
# [9] = Table 12, composite data from the Examples, 1× (Compound (2) 0.5× to 1×)
# [10] = Table 13A, 1-2 μg per eye, intravitreal P7, read P12
# [11] = Table 13C low dosing, 0.1x (integrin ant. 1.0 μg, VEGF apt. 0.20 μg, T2-TrpRS 0.025 μg)
substance,measurement,setting,value
pegaptanib sodium [Compound (2)],inhibition of neovascularization,"0.1× concentrations (1 μg/eye integrin antagonist, 0.2 μg/eye VEGF aptamer, 0.025 μg/eye T2-TrpRS)",negligible
same,% of eyes with 0-10% inhibition of deep vascular layer,[1],20%
same,% of eyes with 10-25% inhibition of deep vascular layer,[1],20%
same,% of eyes with 25-50% inhibition of deep vascular layer,[1],20%
same,% of eyes with 50-75% inhibition of deep vascular layer,[1],20%
same,% of eyes with 75-100% inhibition of deep vascular layer,[1],40%
same,% of eyes with 0-10% inhibition of deep vascular layer,[2],87.5%
same,% of eyes with 10-25% inhibition of deep vascular layer,[2],12.5%
same,% of eyes with 25-50% inhibition of deep vascular layer,[2],0%
same,% of eyes with 50-75% inhibition of deep vascular layer,[2],0%
same,% of eyes with 75-100% inhibition of deep vascular layer,[2],0%
same,% of eyes with 100% inhibition of deep vascular layer,[2],0%
same,% of eyes with >95% inhibition of deep vascular layer,[2],0%
same,% of eyes with 0-10% inhibition of deep vascular layer,[3],37.5%
same,% of eyes with 10-25% inhibition of deep vascular layer,[3],12.5%
same,% of eyes with 25-50% inhibition of deep vascular layer,[3],12.5%
same,% of eyes with 50-75% inhibition of deep vascular layer,[3],12.5%
same,% of eyes with 75-100% inhibition of deep vascular layer,[3],25%
same,% of eyes with 100% inhibition of deep vascular layer,[3],0%
same,% of eyes with >95% inhibition of deep vascular layer,[3],0%
same,% of eyes with 0-10% inhibition of deep vascular layer,[4],60%
same,% of eyes with 10-25% inhibition of deep vascular layer,[4],30%
same,% of eyes with 25-50% inhibition of deep vascular layer,[4],0%
same,% of eyes with 50-75% inhibition of deep vascular layer,[4],0%
same,% of eyes with 75-100% inhibition of deep vascular layer,[4],10%
same,% of eyes with 100% inhibition of deep vascular layer,[4],0%
same,% of eyes with >95% inhibition of deep vascular layer,[4],0%
same,% of eyes with 0-10% inhibition of deep vascular layer,[5],37.5%
same,% of eyes with 10-25% inhibition of deep vascular layer,[5],25%
same,% of eyes with 25-50% inhibition of deep vascular layer,[5],12.5%
same,% of eyes with 50-75% inhibition of deep vascular layer,[5],25%
same,% of eyes with 75-100% inhibition of deep vascular layer,[5],0%
same,% of eyes with 100% inhibition of deep vascular layer,[5],0%
same,% of eyes with >95% inhibition of deep vascular layer,[5],0%
same,% of eyes with 0-10% inhibition of deep vascular layer,[6],25%
same,% of eyes with 10-25% inhibition of deep vascular layer,[6],25%
same,% of eyes with 25-50% inhibition of deep vascular layer,[6],0%
same,% of eyes with 50-75% inhibition of deep vascular layer,[6],12.5%
same,% of eyes with 75-100% inhibition of deep vascular layer,[6],37.5%
same,% of eyes with 100% inhibition of deep vascular layer,[6],0%
same,% of eyes with >95% inhibition of deep vascular layer,[6],0%
same,% of eyes with 0-10% inhibition of deep vascular layer,[7],54.5%
same,% of eyes with 10-25% inhibition of deep vascular layer,[7],36.4%
same,% of eyes with 25-50% inhibition of deep vascular layer,[7],0%
same,% of eyes with 50-75% inhibition of deep vascular layer,[7],0%
same,% of eyes with 75-100% inhibition of deep vascular layer,[7],9.1%
same,% of eyes with 100% inhibition of deep vascular layer,[7],0%
same,% of eyes with >95% inhibition of deep vascular layer,[7],0%
same,% of eyes with 0-10% inhibition of deep vascular layer,[8],25%
same,% of eyes with 10-25% inhibition of deep vascular layer,[8],0%
same,% of eyes with 25-50% inhibition of deep vascular layer,[8],12.5%
same,% of eyes with 50-75% inhibition of deep vascular layer,[8],12.5%
same,% of eyes with 75-100% inhibition of deep vascular layer,[8],50%
same,% of eyes with 100% inhibition of deep vascular layer,[8],12.5%
same,% of eyes with >95% inhibition of deep vascular layer,[8],25%
same,% of mice with 0-10% inhibition of deep vascular layer,[9],39.1%
same,% of mice with 10-25% inhibition of deep vascular layer,[9],20%
same,% of mice with 25-50% inhibition of deep vascular layer,[9],7.6%
same,% of mice with 50-75% inhibition of deep vascular layer,[9],11.9%
same,% of mice with 75-100% inhibition of deep vascular layer,[9],21.4%
same,% of mice with 100% inhibition of deep vascular layer,[9],2.4%
same,% of mice with >95% inhibition of deep vascular layer,[9],4.7%
same,Percentage of retinas with 0-10% neovascular inhibition,[10],39.1%
same,Percentage of retinas with 10-25% neovascular inhibition,[10],20.0%
same,Percentage of retinas with 25-50% neovascular inhibition,[10],7.6%
same,Percentage of retinas with 50-75% neovascular inhibition,[10],11.9%
same,Percentage of retinas with 100% neovascular inhibition,[10],2.4%
same,Percentage of retinas with >75% neovascular inhibition,[10],21.4%
same,Percentage of retinas with >90% neovascular inhibition,[10],4.7%
same,Percentage of retinas with 0-10% neovascular inhibition,[11],75%
same,Percentage of retinas with 10-25% neovascular inhibition,[11],25%
same,Percentage of retinas with 25-50% neovascular inhibition,[11],0%
same,Percentage of retinas with 50-75% neovascular inhibition,[11],0%
same,Percentage of retinas with 100% neovascular inhibition,[11],0%
same,Percentage of retinas with >75% neovascular inhibition,[11],0%
same,Percentage of retinas with >90% neovascular inhibition,[11],0%
same,retinas that exhibited over 75% inhibition,monotherapy at optimal dose,21%
same,retinas unaffected by injection,monotherapy at the maximum individual dose,around 35%
